Here are results for 44 molecules from BindingDB's records for doi:10.1021/acs.jmedchem.7b01449 (University of Antwerp, 2018).

Bounds are passed on as bounds.

The nature of test [1]: Inhibition of RIPK1 in mouse L929sA cells transfected with human Fas assessed as inhibition in TNF-induced necroptosis pretreated for 24 hrs followed by TNF and zVAD.fmk addition measured after 3 hrs by Hoechst 33342/propidium iodide staining-based assay.
Assay in test [2]: as above
The source holds these as a separate data set.

A short description of test [3]: Inhibition of RIPK1 in mouse L929sA cells transfected with human Fas assessed as inhibition in TNF-induced necroptosis pretreated for 0.5 hrs followed by TNF and zVAD.fmk addition measured after 3 hrs by Hoechst 33342/propidium iodide staining-based assay.
Assay in test [4]: as above
This is another data set of the same source.

Test [5] concerns the target T1, Receptor-interacting serine/threonine-protein kinase 1 (Mus musculus, UniProt Q60855).
T1 sequence (Q60855 whole entry): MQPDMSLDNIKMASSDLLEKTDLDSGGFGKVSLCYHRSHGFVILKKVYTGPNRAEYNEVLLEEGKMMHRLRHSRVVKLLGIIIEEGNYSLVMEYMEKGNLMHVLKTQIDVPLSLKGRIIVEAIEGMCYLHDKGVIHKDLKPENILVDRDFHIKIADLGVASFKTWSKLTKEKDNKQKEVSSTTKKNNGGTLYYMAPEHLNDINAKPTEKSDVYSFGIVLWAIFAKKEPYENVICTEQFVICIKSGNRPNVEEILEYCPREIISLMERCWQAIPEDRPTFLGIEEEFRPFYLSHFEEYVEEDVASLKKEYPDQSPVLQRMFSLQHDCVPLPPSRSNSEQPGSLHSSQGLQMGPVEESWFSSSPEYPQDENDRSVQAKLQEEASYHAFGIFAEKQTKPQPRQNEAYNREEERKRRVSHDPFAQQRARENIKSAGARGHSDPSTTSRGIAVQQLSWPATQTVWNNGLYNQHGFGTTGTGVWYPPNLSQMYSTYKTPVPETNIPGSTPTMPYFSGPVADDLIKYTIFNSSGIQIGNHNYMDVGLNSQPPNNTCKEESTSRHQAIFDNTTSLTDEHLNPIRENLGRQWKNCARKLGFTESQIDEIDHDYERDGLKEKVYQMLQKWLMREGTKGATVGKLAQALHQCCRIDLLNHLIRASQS
The experiment in a line: (§1) Inhibition of RIPK1 in mouse L929sA cells transfected with human Fas assessed as inhibition in TNF-induced necroptosis pretreated for 24 hrs followed by TNF and zVAD.fmk addition measured after 3 hrs by Hoechst 33342/propidium iodide staining-based assay.

For test [6], the target named is T1, Receptor-interacting serine/threonine-protein kinase 1. The experiment in a line: ChEBML_1697666.
Description: as §1

Take `Cc1[nH]nc(Nc2nc(Sc3ccc(NC(=O)C4CC4)cc3)nc(N3CCCCC3)n2)c1C`: the IC50 in test [1] is more than 3000 nM.

`Cc1[nH]nc(Nc2cc(N3CCOCC3)nc(Sc3ccc(NC(=O)C4CCCCC4)cc3)n2)c1C`: the IC50 in test [2] and in test [3] was more than 3000 nM throughout.

As for `Cc1cc(Nc2cc(N3CCOCC3)nc(Sc3ccc(NC(=O)C4CCCCC4)cc3)n2)n[nH]1`, the results for the IC50 in test [2] and in test [3] were 360 nM and 380 nM, respectively.

Turning to `Cc1[nH]nc(Nc2cc(N3CCCCC3)nc(Sc3ccc(NC(=O)C4CCCCC4)cc3)n2)c1C`, the 50% inhibitory concentration (IC50) in test [1] was more than 3000 nM.

For `Cc1cc(Nc2nc(Nc3ccc(NC(=O)C4CCCCC4)cc3)nc(N3CCOCC3)n2)n[nH]1`, the IC50 in test [2] and in test [3] was more than 3000 nM in each case.

As to `Cc1cc(Nc2cc(N3CCOCC3)nc(Sc3ccc(NC(=O)C4CC4)cc3)n2)n[nH]1`, the values for the half-maximal inhibitory concentration (IC50) in test [1] and in test [3] were 810 nM and 390 nM, respectively.

With `Cc1[nH]nc(Nc2cc(N3CCOCC3)nc(Nc3ccc(NC(=O)C4CC4)cc3)n2)c1C`, the IC50 in test [1] and in test [3] was more than 3000 nM throughout.

Turning to `Cc1cc(Nc2nc(Nc3ccc(NC(=O)C4CC4)cc3)nc(N3CCOCC3)n2)n[nH]1`, the results for the IC50 in test [1] and in test [4] were 2640 nM and 1060 nM, respectively.

For the molecule `Cc1cc(Nc2nc(Sc3ccc(NC(=O)C4CCCCC4)cc3)nc(N3CCN(C)CC3)n2)n[nH]1`, the 50% inhibitory concentration (IC50) in test [2] and in test [3] was more than 3000 nM in each case.

On to `Cc1[nH]nc(Nc2nc(Nc3ccc(NC(=O)C4CC4)cc3)nc(N3CCOCC3)n2)c1C`, for which the 50% inhibitory concentration (IC50) in test [2] and in test [3] was more than 3000 nM each time.

For the molecule `Cc1cc(Nc2nc(Sc3ccc(NC(=O)C4CC4)cc3)nc(N3CCOCC3)n2)n[nH]1`, the values for the IC50 in test [1] and in test [4] were 1450 nM and 700 nM, respectively.

On to `Cc1cc(Nc2nc(Sc3ccc(NC(=O)C4CC4)cc3)nc(N3CCN(C)CC3)n2)n[nH]1`, for which the IC50 was 1140 nM in test [1] and more than 3000 nM in test [3].

In the case of `Cc1[nH]nc(Nc2cc(N3CCCCC3)nc(Nc3ccc(NC(=O)C4CC4)cc3)n2)c1C`, the IC50 in test [5] was more than 3000 nM.

For the molecule `Cc1cc(Nc2cc(N3CCN(C)CC3)nc(Nc3ccc(NC(=O)C4CC4)cc3)n2)n[nH]1`, the results for the concentration for half-maximal inhibition (IC50) in test [1] and in test [4] were 640 nM and 1040 nM, respectively.

Regarding `Cc1cc(Nc2nc(Nc3ccc(NC(=O)C4CC4)cc3)nc(N3CCCCC3)n2)n[nH]1`, the 50% inhibitory concentration (IC50) in test [6] was more than 3000 nM.

For `Cc1[nH]nc(Nc2nc(Sc3ccc(NC(=O)C4CCCCC4)cc3)nc(N3CCOCC3)n2)c1C`, in test [2], the IC50 is more than 3000 nM.

`Cc1[nH]nc(Nc2cc(N3CCN(C)CC3)nc(Nc3ccc(NC(=O)C4CCCCC4)cc3)n2)c1C`: the concentration for half-maximal inhibition (IC50) in test [2] was more than 3000 nM.

For the molecule `Cc1cc(Nc2cc(N3CCCCC3)nc(Sc3ccc(NC(=O)C4CC4)cc3)n2)n[nH]1`, the IC50 in test [1] is 1740 nM.

On to `Cc1cc(Nc2cc(N3CCN(C)CC3)nc(Sc3ccc(NC(=O)C4CCCCC4)cc3)n2)n[nH]1`, for which the IC50 in test [5] was more than 3000 nM.

For `Cc1cc(Nc2nc(Nc3ccc(NC(=O)C4CC4)cc3)nc(N3CCN(C)CC3)n2)n[nH]1`, the IC50 in test [1] and in test [3] was more than 3000 nM throughout.

In the case of `Cc1[nH]nc(Nc2nc(Nc3ccc(NC(=O)C4CC4)cc3)nc(N3CCN(C)CC3)n2)c1C`, the IC50 in test [2] and in test [3] was more than 3000 nM each time.

In the case of `Cc1cc(Nc2nc(Sc3ccc(NC(=O)C4CCCCC4)cc3)nc(N3CCOCC3)n2)n[nH]1`, the IC50 was 1630 nM in test [2] and more than 3000 nM in test [3].

Consider `Cc1cc(Nc2nc(Nc3ccc(NC(=O)C4CCCCC4)cc3)nc(N3CCCCC3)n2)n[nH]1`, for which the half-maximal inhibitory concentration (IC50) in test [1] and in test [3] was more than 3000 nM each time.

`Cc1[nH]nc(Nc2nc(Sc3ccc(NC(=O)C4CC4)cc3)nc(N3CCN(C)CC3)n2)c1C`: the concentration for half-maximal inhibition (IC50) in test [1] is more than 3000 nM.

As to `Cc1[nH]nc(Nc2cc(N3CCN(C)CC3)nc(Nc3ccc(NC(=O)C4CC4)cc3)n2)c1C`, the IC50 in test [1] and in test [3] was more than 3000 nM throughout.

As to `Cc1cc(Nc2cc(N3CCCCC3)nc(Nc3ccc(NC(=O)C4CC4)cc3)n2)n[nH]1`, the concentration for half-maximal inhibition (IC50) in test [1] worked out at 680 nM; in test [3], 530 nM.

Take `Cc1[nH]nc(Nc2nc(Nc3ccc(NC(=O)C4CC4)cc3)nc(N3CCCCC3)n2)c1C`: the IC50 in test [2] and in test [3] was more than 3000 nM throughout.

Turning to `Cc1cc(Nc2cc(N3CCCCC3)nc(Sc3ccc(NC(=O)C4CCCCC4)cc3)n2)n[nH]1`, the values for the IC50 in test [1] and in test [3] were 5040 nM and 1750 nM, respectively.

Take `Cc1cc(Nc2nc(Nc3ccc(NC(=O)C4CCCCC4)cc3)nc(N3CCN(C)CC3)n2)n[nH]1`: the IC50 in test [1] was more than 3000 nM.

With `Cc1[nH]nc(Nc2cc(N3CCOCC3)nc(Nc3ccc(NC(=O)C4CCCCC4)cc3)n2)c1C`, the half-maximal inhibitory concentration (IC50) in test [1] and in test [3] was more than 3000 nM each time.

`Cc1cc(Nc2cc(N3CCN(C)CC3)nc(Nc3ccc(NC(=O)C4CCCCC4)cc3)n2)n[nH]1`: the 50% inhibitory concentration (IC50) in test [1] turned out to be 1750 nM; in test [3], 910 nM.

Take `Cc1cc(Nc2cc(N3CCCCC3)nc(Nc3ccc(NC(=O)C4CCCCC4)cc3)n2)n[nH]1`: the IC50 in test [6] is more than 3000 nM; in test [1], 1940 nM.

For `Cc1cc(Nc2nc(Sc3ccc(NC(=O)C4CCCCC4)cc3)nc(N3CCCCC3)n2)n[nH]1`, the 50% inhibitory concentration (IC50) in test [1] and in test [3] was more than 3000 nM throughout.

As for `Cc1cc(Nc2cc(N3CCOCC3)nc(Nc3ccc(NC(=O)C4CCCCC4)cc3)n2)n[nH]1`, the IC50 came out at 1500 nM in test [1] and 640 nM in test [3].

For `Cc1[nH]nc(Nc2nc(Nc3ccc(NC(=O)C4CCCCC4)cc3)nc(N3CCCCC3)n2)c1C`, the IC50 in test [5] is more than 3000 nM.

Take `Cc1[nH]nc(Nc2nc(Sc3ccc(NC(=O)C4CC4)cc3)nc(N3CCOCC3)n2)c1C`: in test [1], the half-inhibitory concentration (IC50) was more than 3000 nM.

For `Cc1[nH]nc(Nc2nc(Nc3ccc(NC(=O)C4CCCCC4)cc3)nc(N3CCOCC3)n2)c1C`, the IC50 in test [5] was more than 3000 nM.

Turning to `Cc1[nH]nc(Nc2cc(N3CCN(C)CC3)nc(Sc3ccc(NC(=O)C4CCCCC4)cc3)n2)c1C`, the 50% inhibitory concentration (IC50) in test [1] and in test [3] was more than 3000 nM in each case.

On to `Cc1[nH]nc(Nc2nc(Nc3ccc(NC(=O)C4CCCCC4)cc3)nc(N3CCN(C)CC3)n2)c1C`, for which, in test [5], the half-maximal inhibitory concentration (IC50) was more than 3000 nM.

Consider `Cc1cc(Nc2nc(Sc3ccc(NC(=O)C4CC4)cc3)nc(N3CCCCC3)n2)n[nH]1`, for which the IC50 in test [1] and in test [3] was more than 3000 nM in each case.

For the molecule `CCN1CCN(c2cc(Nc3n[nH]c(C)c3C)nc(Sc3ccc(NC(=O)C4CC4)cc3)n2)CC1`, the IC50 in test [1] and in test [3] was more than 3000 nM in each case.

Consider `Cc1[nH]nc(Nc2cc(N3CCCCC3)nc(Nc3ccc(NC(=O)C4CCCCC4)cc3)n2)c1C`, for which the 50% inhibitory concentration (IC50) in test [2] and in test [3] was more than 3000 nM throughout.

As for `Cc1[nH]nc(Nc2nc(Sc3ccc(NC(=O)C4CCCCC4)cc3)nc(N3CCCCC3)n2)c1C`, the IC50 in test [5] is more than 3000 nM.

On to `Cc1[nH]nc(Nc2nc(Sc3ccc(NC(=O)C4CCCCC4)cc3)nc(N3CCN(C)CC3)n2)c1C`, for which, in test [5], the half-inhibitory concentration (IC50) was more than 3000 nM.
